US20040057926A1, “Modulation of the immune response through the manipulation of arginine levels” (LSU Medical Center, priority 2002, published 2004)

Experiments:
Jurkat cells [1] = assay: Proliferation of Jurkat cells with H. pylori sonicate (3H-thymidine); format: cell-based; settings: NOHA 10 μg/ml, L-arginine 2 mM; sonicate 50 μg/ml
Procedure: Unless otherwise stated, the cells were always cultured in RPMI 1640 (Gibco Life-Technologies; Rockville, Md.) which contains 1104 μM L-arginine, 2.5 mM of L-glutamine, (Gibco), 25 mM HEPES (Gibco), 100 μg/ml of penicillin/streptomycin (Gibco), and 10% heat inactivated FCS (Hyclone). Jurkat cells were maintained at 0.5×10^6/ml. For proliferation assays Jurkat cells or peripheral blood mononuclear cells (PBMC) were placed at 2×10^5/well in round-bottom 96-well plates (Corning; Corning, N.Y.) and incubated for 2 h with increasing concentrations of the H. pylori sonicate ranging from 0.01 μg/ml to 100 μg/ml. After this, 30 ng/ml of anti-CD3 (Ortho Diagnostics, Raritan, N.J.) and 100 ng/ml of anti-CD28 (Becton-Dickinson Biosciences; Palo Alto, Calif.) were added to the PBMC. Jurkat cells were incubated for an additional 24 h and the PBMC for 48 h. […] The cells were collected onto glass fiber filters (Unifilter GF/B; Packard Bioscience; Meriden, Conn.) and radioactivity was counted in a Beta counter (Microplate Scintillation and Luminiscence Counter, TopCount, Packard).
[…] After addition of the sonicate plus NOHA or sonicate plus L-arginine mixture to the Jurkat cells, 1.0 μCi of ^3H-thymidine (NEN) was added per well, the cells were incubated at 37° C. for 18 h, harvested onto filters and counted in a β-counter (Packard).

Jurkat cells [2] = assay: Co-culture in transwells of stimulated PM and Jurkat cells, CD3ζ expression; format: cell-based; settings: for CD3ζ in Jurkat cells co-cultured with PM stimulated with IL-4+IL-13: NOHA 100 μM, Nor-NOHA 50 μM, L-Arg 2 mM, L-NIL 5 μg/ml, catalase 200 U/ml, L-NMMA, L-NNA, L-NAME 1 mM
Procedure: (§1) PM were cultured in 6 well plates in RPMI containing 150 μM L-Arg and stimulated with murine rIL-4 (50 U/ml) and murine rIL-13 (50 ng/ml), or murine rIFN-γ (100 U/ml) for 24 hours. Then 1×10^6 normal T-cells stimulated with anti-CD3 plus anti-CD28 or 1×10^6 Jurkat cells, were cultured in the top chamber of a transwell system having 0.4 μm pores (Falcon, Franklin lakes, N.J.). CD3ζ expression was measured in Jurkat cells or T lymphocytes at different time points. PM were detached using trypsin/EDTA and the expression of protein and RNA for CAT-2B, ASE I, ASE II and iNOS was tested by western blot and northern blot respectively. Cytoplasmic extracts from PM were used to test ASE activity. Supernatants from stimulated PM were used to measure NO production using the Griess reagent method (Molecular Probes, Eugene, Oreg.). In addition, the extra-cellular concentration of L-Arg was tested in supernatants by HPLC (Dr. Gu Yao Wu laboratory, University of Texas) as described previously. O'Quinn, P. R., D. A. Knabe, and G. Wu. 2002. Arginine catabolism in lactating porcine mammary tissue. J Anim Sci. 80:467-474.
Flow cytometry analysis was performed as previously described. Taheri, F., J. B. Ochoa, Z. Faghiri, K. Culotta, H. J. Park, M. S. Lan, A. H. Zea, and A. C. Ochoa. 2001. L-Arginine regulates the expression of the T-cell receptor zeta chain (CD3zeta) in Jurkat cells. Clin Cancer Res 7:958s-965s. Briefly, 5×10^5 Jurkat cells or T lymphocytes were washed once with Dulbecco phosphate-buffered saline 1× (D-PBS) and resuspended in 200 μL of D-PBS containing 1 μg of anti-CD3ε or isotype control. Cells were incubated for 15 min at 4° C., washed with D-PBS and resuspended in 200 μl D-PBS containing 500 μg/ml of digitonin plus 1 μg of anti-CD3ζ or 1 μg of isotypic control. Cells were incubated for 8 minutes after which they were washed and resuspended in 400 μl of D-PBS. Fluorescence acquisition and analysis were done using a Coulter-EPICS XL flow cytometer (Beckman-Coulter) with a 488 nm argon laser. The data were expressed as mean channel fluorescence intensity (MFI).

CAT-3 = CAT-3 (Homo sapiens, UniProt Q8WY07); settings: read-out: Km for L-Arg; cited from earlier work
[3] = tested on: peritoneal macrophages (PM); assay: Extra-cellular L-Arg concentration in supernatants of peritoneal macrophages (HPLC); format: cell-based, mice; settings: for extra-cellular L-Arg levels (mean of three experiments): L-Arg 2 mM, NOHA 100 μM, Nor-NOHA 50 μM; for rapid decrease in the extra-cellular levels of L-Arg: PM stimulated with IL-4+IL-13
Procedure: Jurkat T-cells, a CD4^+ cell line (Clone E6-1) (ATCC, Manassas, Va.) and normal stimulated T-cells were used to test the effect of ASE I, ASE II and iNOS produced by PM on CD3ζ expression. Six-week old female C57BL/6 mice were used to isolate peritoneal macrophages (PM). Briefly, 3 ml of thioglycolate-brewer (Becton Dickinson, San Jose, Calif.) were injected into the peritoneal cavity of mice for 3 days. Mice were then sacrificed and PM isolated by washing the peritoneum with HBSS. After 2 days of culture in RPMI with 4% fetal bovine serum, unattached cells were washed off and attached cells were used in co-cultures with Jurkat or normal T-cells.
as §1

ASE I = assay: Western blot for ASE I in PM cytoplasmic extracts; format: cell-based, mice; settings: NOHA 100 μM, Nor-NOHA 50 μM
Procedure: Cytoplasmic extracts from PM, Jurkat cells or T lymphocytes were prepared as previously reported. Taheri, F., J. B. Ochoa, Z. Faghiri, K. Culotta, H. J. Park, M. S. Lan, A. H. Zea, and A. C. Ochoa. 2001. L-Arginine regulates the expression of the T-cell receptor zeta chain (CD3zeta) in Jurkat cells. Clin Cancer Res 7:958s-965s. Briefly, cells were resuspended in lysis buffer (50 mM HEPES, 150 mM NaCl, 5 mM EDTA, 1 mM NaOV4 and 0.5% Triton) containing 50 μg/ml of aprotinin, 50 μg/ml of leupeptin, 100 μg/ml of trypsin-chymotrypsin inhibitor and 2 mM PMSF. Lysates were centrifuged at 3000×g for 10 min at 4° C. Cytoplasmic extracts from Jurkat or T-cells were immunoblotted for CD3ζ and CD3ε. The expression ASE I, ASE II and iNOS was detected by immunoblot using PM extracts. GAPDH was used as housekeeping protein. Cytoplasmic extracts were electrophoresed in 12 or 8% Tris-Glycine gels (Novex, San Diego, Calif.), transferred to PVDF membranes and immunoblotted with the appropriate antibodies. The reactions were detected using the ECL kit (Amersham-Pharmacia).

[4] = PM stimulated with IL-4 + IL-13

CAT-3, sequence (Q8WY07 whole entry, species assumed): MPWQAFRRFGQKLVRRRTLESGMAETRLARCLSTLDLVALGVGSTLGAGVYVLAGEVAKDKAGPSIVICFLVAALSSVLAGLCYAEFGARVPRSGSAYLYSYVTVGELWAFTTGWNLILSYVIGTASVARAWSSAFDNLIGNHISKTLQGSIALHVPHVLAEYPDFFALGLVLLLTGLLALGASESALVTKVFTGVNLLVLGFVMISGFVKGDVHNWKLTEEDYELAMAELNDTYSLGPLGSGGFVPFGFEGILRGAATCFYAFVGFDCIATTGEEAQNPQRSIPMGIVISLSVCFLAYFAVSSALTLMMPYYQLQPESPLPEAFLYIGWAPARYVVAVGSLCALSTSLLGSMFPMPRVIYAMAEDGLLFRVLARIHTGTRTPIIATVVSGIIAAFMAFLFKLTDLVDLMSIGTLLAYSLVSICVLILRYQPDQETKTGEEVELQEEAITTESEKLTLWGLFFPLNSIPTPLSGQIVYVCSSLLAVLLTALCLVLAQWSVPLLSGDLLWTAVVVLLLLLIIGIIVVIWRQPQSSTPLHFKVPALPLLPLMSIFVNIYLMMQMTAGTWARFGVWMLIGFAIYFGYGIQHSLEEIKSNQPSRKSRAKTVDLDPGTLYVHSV

| SMILES | Jurkat cell proliferation in the presence of H. pylori sonicate (Jurkat cells [1]) | re-expression of CD3ζ on addition after 24 hours of co-culture (Jurkat cells [2]; 2 mM added, CD3ζ tested 24 hours later) | CD3ζ in Jurkat cells co-cultured with PM stimulated with IL-4+IL-13 (Jurkat cells [2]) | Km (CAT-3) [µM] | extra-cellular L-Arg levels (mean of three experiments) ([3]; Non-stimulated PM) [µM] | extra-cellular L-Arg levels (mean of three experiments) [3, 4] [µM] | rapid decrease in the extra-cellular levels of L-Arg [3] | ASE I up regulation after IL-4+IL-13 stimulation (ASE I) |
| --- | --- | --- | --- | --- | --- | --- | --- | --- |
| N=C(N)NCCC[C@H](N)C(=O)O [L-arginine] | prevented a decrease in cell proliferation | induced the re-expression of CD3ζ | prevented the decrease of CD3ζ | 100 | 1267 | 59.8 | partially blocked the rapid decrease |  |
| NC(=NCCC[C@H](N)C(=O)O)NO [NOHA, NG-hydroxy-L-arginine] | prevented the decrease in Jurkat cell proliferation |  | prevented the decrease of CD3ζ |  | 101.6 | 75.6 | partially blocked the rapid decrease | did not prevent ASE I up regulation |
